{"source": "PubChem BioAssay AID2060626", "about": "(Molecular Pharmacology Branch, DTP, NCI, 2025);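 note: viability measured after seven days of drug exposure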;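 for viability, T/C: luminescence signal used as surrogate for viable cell amount; 100% = DMSO vehicle control wells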", "test_system": "168753-222-R-J1-PDC complex spheroid viability", "assay": "Anticancer human tumor 168753-222-R-J1-PDC patient-derived bladder carcinoma cell line growth inhibition [CLK]", "settings": "for IC50: curve of first compound; for viability, T/C: stronger effect = lower value", "procedure,_shortened": "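Patient-derived tumor cells grown as complex spheroids with HUVEC endothelial cells and mesenchymal stem cells, treated with drug combinations. Concentrations descend in half-log steps from near clinical Cmax, or from 10 microM if Cmax unknown.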", "key": {"[1]": {"settings": "second compound 0.0316 µM, first compound 0.00949 µM"}, "[2]": {"settings": "second compound 0.0316 µM, first compound 0.03 µM"}, "[3]": {"settings": "second compound 0.0316 µM, first compound 0.0949 µM"}, "[4]": {"settings": "second compound 0.0316 µM, first compound 0.3 µM"}, "[5]": {"settings": "second compound 0.1 µM, first compound 0.00949 µM"}, "[6]": {"settings": "second compound 0.1 µM, first compound 0.03 µM"}, "[7]": {"settings": "second compound 0.1 µM, first compound 0.0949 µM"}, "[8]": {"settings": "second compound 0.1 µM, first compound 0.3 µM"}, "[9]": {"settings": "second compound 0.316 µM, first compound 0.00949 µM"}, "[10]": {"settings": "second compound 0.316 µM, first compound 0.03 µM"}, "[11]": {"settings": "second compound 0.316 µM, first compound 0.0949 µM"}, "[12]": {"settings": "second compound 0.316 µM, first compound 0.3 µM"}, "[13]": {"settings": "second compound 1 µM, first compound 0.00949 µM"}, "[14]": {"settings": "second compound 1 µM, first compound 0.03 µM"}, "[15]": {"settings": "second compound 1 µM, first compound 0.0949 µM"}, "[16]": {"settings": "second compound 1 µM, first compound 0.3 µM"}, "[17]": {"settings": "second compound 3.16 µM, first compound 0.00949 µM"}, "[18]": {"settings": "second compound 3.16 µM, first compound 0.03 µM"}, "[19]": {"settings": "second compound 3.16 µM, first compound 0.0949 µM"}, "[20]": {"settings": "second compound 3.16 µM, first compound 0.3 µM"}, "[21]": {"settings": "second compound 10 µM, first compound 0.00949 µM"}, "[22]": {"settings": "second compound 10 µM, first compound 0.03 µM"}, "[23]": {"settings": "second compound 10 µM, first compound 0.0949 µM"}, "[24]": {"settings": "second compound 10 µM, first compound 0.3 µM"}}, "data": [{"smiles": "C=CC(=O)Nc1cc(Nc2nccc(-c3cn(C)c4ccccc34)n2)c(OC)cc1N(C)CCN(C)C", "note": "+ CN1CCN(c2cc(C(=O)Nc3cc4cc(-c5cnn(C)c5)ccc4cn3)ccn2)CC1", "values": [{"measurement": "IC50", "setting": "second compound 0.0316 µM", "value": "> 300", "unit": "nM"}, {"measurement": "IC50", "setting": "second compound 0.1 µM", "value": 58.9, "unit": "nM"}, {"measurement": "IC50", "setting": "second compound 0.316 µM", "value": "< 0.949", "unit": "nM"}, {"measurement": "IC50", "setting": "second compound 1 µM", "value": "< 0.949", "unit": "nM"}, {"measurement": "IC50", "setting": "second compound 3.16 µM", "value": "< 0.949", "unit": "nM"}, {"measurement": "IC50", "setting": "second compound 10 µM", "value": "< 0.949", "unit": "nM"}, {"measurement": "viability, T/C", "setting": "second compound 0.0316 µM, first compound 0.000949 µM", "value": 117, "unit": "%"}, {"measurement": "viability, T/C", "setting": "second compound 0.0316 µM, first compound 0.003 µM", "value": 113, "unit": "%"}, {"measurement": "viability, T/C", "setting": "[1]", "value": 105, "unit": "%"}, {"measurement": "viability, T/C", "setting": "[2]", "value": 114, "unit": "%"}, {"measurement": "viability, T/C", "setting": "[3]", "value": 103, "unit": "%"}, {"measurement": "viability, T/C", "setting": "[4]", "value": 108, "unit": "%"}, {"measurement": "viability, T/C", "setting": "second compound 0.1 µM, first compound 0.000949 µM", "value": 65.7, "unit": "%"}, {"measurement": "viability, T/C", "setting": "second compound 0.1 µM, first compound 0.003 µM", "value": 71.8, "unit": "%"}, {"measurement": "viability, T/C", "setting": "[5]", "value": 53.4, "unit": "%"}, {"measurement": "viability, T/C", "setting": "[6]", "value": 77, "unit": "%"}, {"measurement": "viability, T/C", "setting": "[7]", "value": 21.2, "unit": "%"}, {"measurement": "viability, T/C", "setting": "[8]", "value": 54.9, "unit": "%"}, {"measurement": "viability, T/C", "setting": "second compound 0.316 µM, first compound 0.000949 µM", "value": 10.4, "unit": "%"}, {"measurement": "viability, T/C", "setting": "second compound 0.316 µM, first compound 0.003 µM", "value": 8.73, "unit": "%"}, {"measurement": "viability, T/C", "setting": "[9]", "value": 9.29, "unit": "%"}, {"measurement": "viability, T/C", "setting": "[10]", "value": 6.59, "unit": "%"}, {"measurement": "viability, T/C", "setting": "[11]", "value": 5.77, "unit": "%"}, {"measurement": "viability, T/C", "setting": "[12]", "value": 1.61, "unit": "%"}, {"measurement": "viability, T/C", "setting": "second compound 1 µM, first compound 0.000949 µM", "value": 0.14, "unit": "%"}, {"measurement": "viability, T/C", "setting": "second compound 1 µM, first compound 0.003 µM", "value": 0.17, "unit": "%"}, {"measurement": "viability, T/C", "setting": "[13]", "value": 0.15, "unit": "%"}, {"measurement": "viability, T/C", "setting": "[14]", "value": 0.32, "unit": "%"}, {"measurement": "viability, T/C", "setting": "[15]", "value": 0.13, "unit": "%"}, {"measurement": "viability, T/C", "setting": "[16]", "value": 0.91, "unit": "%"}, {"measurement": "viability, T/C", "setting": "second compound 3.16 µM, first compound 0.000949 µM", "value": 0.1, "unit": "%"}, {"measurement": "viability, T/C", "setting": "second compound 3.16 µM, first compound 0.003 µM", "value": 0.13, "unit": "%"}, {"measurement": "viability, T/C", "setting": "[17]", "value": 0.21, "unit": "%"}, {"measurement": "viability, T/C", "setting": "[18]", "value": 0.09, "unit": "%"}, {"measurement": "viability, T/C", "setting": "[19]", "value": 0.17, "unit": "%"}, {"measurement": "viability, T/C", "setting": "[20]", "value": 2.63, "unit": "%"}, {"measurement": "viability, T/C", "setting": "second compound 10 µM, first compound 0.000949 µM", "value": 0.15, "unit": "%"}, {"measurement": "viability, T/C", "setting": "second compound 10 µM, first compound 0.003 µM", "value": 0.28, "unit": "%"}, {"measurement": "viability, T/C", "setting": "[21]", "value": 0.5, "unit": "%"}, {"measurement": "viability, T/C", "setting": "[22]", "value": 0.15, "unit": "%"}, {"measurement": "viability, T/C", "setting": "[23]", "value": 0.27, "unit": "%"}, {"measurement": "viability, T/C", "setting": "[24]", "value": 0.37, "unit": "%"}]}, {"smiles": "NC(=O)C(=Cn1cnc(-c2cc(C(F)(F)F)cc(C(F)(F)F)c2)n1)c1cncnc1", "note": "+ CNC(=O)c1ccc(Nc2nc(OC3CCCC3)c3c(-c4ccc5nc(C)oc5c4)c[nH]c3n2)c(OC)c1", "values": [{"measurement": "IC50", "setting": "second compound 0.0316 µM", "value": "> 3000", "unit": "nM"}, {"measurement": "IC50", "setting": "second compound 0.1 µM", "value": 829, "unit": "nM"}, {"measurement": "IC50", "setting": "second compound 0.316 µM", "value": 142, "unit": "nM"}, {"measurement": "IC50", "setting": "second compound 1 µM", "value": 10.6, "unit": "nM"}, {"measurement": "IC50", "setting": "second compound 3.16 µM", "value": "< 9.49", "unit": "nM"}, {"measurement": "IC50", "setting": "second compound 10 µM", "value": "< 9.49", "unit": "nM"}, {"measurement": "viability, T/C", "setting": "[1]", "value": 103, "unit": "%"}, {"measurement": "viability, T/C", "setting": "[2]", "value": 105, "unit": "%"}, {"measurement": "viability, T/C", "setting": "[3]", "value": 69, "unit": "%"}, {"measurement": "viability, T/C", "setting": "[4]", "value": 83, "unit": "%"}, {"measurement": "viability, T/C", "setting": "second compound 0.0316 µM, first compound 0.949 µM", "value": 72.6, "unit": "%"}, {"measurement": "viability, T/C", "setting": "second compound 0.0316 µM, first compound 3 µM", "value": 48.9, "unit": "%"}, {"measurement": "viability, T/C", "setting": "[5]", "value": 105, "unit": "%"}, {"measurement": "viability, T/C", "setting": "[6]", "value": 121, "unit": "%"}, {"measurement": "viability, T/C", "setting": "[7]", "value": 89.9, "unit": "%"}, {"measurement": "viability, T/C", "setting": "[8]", "value": 59.7, "unit": "%"}, {"measurement": "viability, T/C", "setting": "second compound 0.1 µM, first compound 0.949 µM", "value": 58.3, "unit": "%"}, {"measurement": "viability, T/C", "setting": "second compound 0.1 µM, first compound 3 µM", "value": 21.5, "unit": "%"}, {"measurement": "viability, T/C", "setting": "[9]", "value": 72.7, "unit": "%"}, {"measurement": "viability, T/C", "setting": "[10]", "value": 73.5, "unit": "%"}, {"measurement": "viability, T/C", "setting": "[11]", "value": 61.8, "unit": "%"}, {"measurement": "viability, T/C", "setting": "[12]", "value": 28, "unit": "%"}, {"measurement": "viability, T/C", "setting": "second compound 0.316 µM, first compound 0.949 µM", "value": 23.1, "unit": "%"}, {"measurement": "viability, T/C", "setting": "second compound 0.316 µM, first compound 3 µM", "value": 21.4, "unit": "%"}, {"measurement": "viability, T/C", "setting": "[13]", "value": 51.8, "unit": "%"}, {"measurement": "viability, T/C", "setting": "[14]", "value": 33.7, "unit": "%"}, {"measurement": "viability, T/C", "setting": "[15]", "value": 14.7, "unit": "%"}, {"measurement": "viability, T/C", "setting": "[16]", "value": 9.95, "unit": "%"}, {"measurement": "viability, T/C", "setting": "second compound 1 µM, first compound 0.949 µM", "value": 2.29, "unit": "%"}, {"measurement": "viability, T/C", "setting": "second compound 1 µM, first compound 3 µM", "value": 11.6, "unit": "%"}, {"measurement": "viability, T/C", "setting": "[17]", "value": 23.3, "unit": "%"}, {"measurement": "viability, T/C", "setting": "[18]", "value": 14.8, "unit": "%"}, {"measurement": "viability, T/C", "setting": "[19]", "value": 11.7, "unit": "%"}, {"measurement": "viability, T/C", "setting": "[20]", "value": 1.87, "unit": "%"}, {"measurement": "viability, T/C", "setting": "second compound 3.16 µM, first compound 0.949 µM", "value": 1.14, "unit": "%"}, {"measurement": "viability, T/C", "setting": "second compound 3.16 µM, first compound 3 µM", "value": 3.62, "unit": "%"}, {"measurement": "viability, T/C", "setting": "[21]", "value": 15.3, "unit": "%"}, {"measurement": "viability, T/C", "setting": "[22]", "value": 13.7, "unit": "%"}, {"measurement": "viability, T/C", "setting": "[23]", "value": 8.71, "unit": "%"}, {"measurement": "viability, T/C", "setting": "[24]", "value": 1.11, "unit": "%"}, {"measurement": "viability, T/C", "setting": "second compound 10 µM, first compound 0.949 µM", "value": 2.71, "unit": "%"}, {"measurement": "viability, T/C", "setting": "second compound 10 µM, first compound 3 µM", "value": 1.28, "unit": "%"}]}]}
